Test system: mitochondrial Na+/Ca2+ exchanger
Assay: fura-2 [Ca2+]i plateau after depolarization in intact neurons
Assay type: cell-based, Aquarana catesbeiana

## O=C1CSC(c2ccccc2Cl)c2cc(Cl)ccc2N1 (stereo not shown) [CGP, CGP 37157]
  IC50: ~0.56 µM

From article PMC2217215 (The Journal of General Physiology, 2000)
